The text below walks through data of patent publication US11253497B2, “Use of derivatives of polyunsaturated fatty acids as medicaments” (Lipopharma Therapeutics, S.L., priority 2009, dated 2022).

Series [1] in a line: Lamellar-to-hexagonal (HII) transition temperature in DEPE model membranes by Differential Scanning Calorimetry. Format: physicochemical. The gist of the method: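 Lamellar-to-HII transition temperature of DEPE membranes measured by differential scanning calorimetry, with DEPE:fatty acid at 10:1 mol:mol. Control membranes contained no fatty acid.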
In series [2] the test system is breast cancer cells MDA-MB-231. Nature of the series: Growth of breast cancer cells MDA-MB-231. As to conditions: 72 hours of incubation. It is filed as cell-based. In short, it runs like this:
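Cell counts taken with compound, mean of three independent experiments. Applies to MDA-MB-231.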

In series [3] the test system is brain cancer cell (glioma) U118. Nature of the series: Brain cancer (glioma) U118 cell growth. To be noted: 72 hours of incubation. It is filed as cell-based. The gist of the method: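 Cell counts taken with compound, mean of three independent experiments. Applies to U118.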
The subject of series [4] is lung cancer cells A549. Nature of the series: Growth of lung cancer cells A549 (IC50). It is filed as cell-based, human. As to conditions: 72 hours of incubation. In short, it runs like this:
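Cell counts taken with compound, mean of three independent experiments. Applies to A549 (RPMI 1640, 10% FBS, 37 °C, 5% CO2).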

Series [5] has as its system Jurkat cells. Kind of series: Human leukaemia (Jurkat cells). It is filed as cell-based. To be noted: 72 hours. Here is the method: (§1) Overall, it may be seen that the series of compounds A and B are the best, so the effectiveness of these series against the development of leukaemia and liver cancer (Tables 9 and 10) was tested.
In series [6] the test system is Spontaneously Hypertensive Rats (SHR). Kind of series: Blood pressure of SHR rats (cuff-tail method). Format: in vivo, rat. To be noted: 200 mg/kg day p.o., 30 days, before treatment 214 mmHg. In short, it runs like this:
(§2)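 SHR rats dosed orally at 200 mg/kg day for 30 days against water vehicle. At study end, blood pressure taken non-invasively by tail cuff and apoA-I assessed as gene expression by RT-PCR.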

For series [7], the system named is apolipoprotein AI (apoA-I). Kind of series: Levels of apoA-I in SHR rats (RT-PCR). Format: in vivo, rat. To be noted: 200 mg/kg day p.o., 30 days, before treatment 100%. The gist of the method:
as §2

Series [8] relates to P19 cells. Nature of the series: NMDA-induced neuronal death in P19 cells. It is filed as cell-based. To be noted: NMDA alone 100% death, control without NMDA 0%; negative values = proliferation.
Series [9] relates to α-synuclein. Kind of series: Expression of α-synuclein in neuronal cultures (cells P19). It is filed as cell-based. To be noted: untreated cells 100%.
The test system of series [10] is COX-2. Kind of series: Expression of COX-2 in LPS-stimulated monocytes in culture. To be noted: positive control with LPS 100%. Format: cell-based, human. The gist of the method:
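Cultured monocytes stimulated with LPS; COX-2 protein level expressed as % inhibition relative to the LPS-only positive control (100%).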

For series [11], the system named is TNF-α. Nature of the series: Production of TNF-α in serum of LPS-injected C57BL6/J mice. It is filed as in vivo. As to conditions: LPS 20 μg i.p. (100%), 200 mg/kg p.o. In short, it runs like this: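 C57BL6/J mice given intraperitoneal LPS (20 μg) to induce inflammation, then dosed orally with derivatives at 200 mg/kg. Serum TNF-α measured.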
Series [12] is described as follows: Serum cholesterol, triglycerides and glucose in SHR rats (colorimetric). To be noted: 200 mg/kg daily p.o., 28 days, untreated rats 100%. It is filed as in vivo, rat. The gist of the method:
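SHR rats dosed p.o. at 200 mg/kg daily for 28 days; serum cholesterol, triglycerides and glucose measured colorimetrically. Values given as percent of untreated control rats, set at 100%.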

Series [13] relates to B6 healthy mice. Kind of series: Radial maze in control animals (B6 healthy mice). It is filed as in vivo. To be noted: 20 mg/kg daily po, 3 months. Here is the method:
To test the efficacy of the compounds of the present invention to induce neuroregeneration or inhibit neurodegeneration, an animal model of Alzheimer's disease was used. In this model mice develop neurodegeneration because they express a series of mutant proteins that lead to brain damage (Alzh mice). B6 mice were used as healthy animal controls. Both groups of animals were treated for a period of 3 months with vehicle (water) or with various D-PUFA (20 mg/kg, daily po) since they were an age of 3 months. To determine whether cognitive improvement occurred after treatment, animal behaviour was monitored in the radial maze. The animals are kept on restricted diet to have appetite. In a symmetrical 8-arm radial maze, visual marks were placed to facilitate the orientation of the animal and food (15 mg tablet) was put in four of the arms. The time each animal took to complete the exercise, and the number of errors, were measured using a camera attached to a computer system. In this sense, Alzheimer animals have values about 50% higher than healthy animals, both by the time it takes to perform the exercise and by the number of errors made (FIG. 4B). […] In this regard, the effectiveness of the compound 183B1, 205A1, 205B1, 226A1, 226 V1 was also tested, showing improvements in animals with Alzheimer's disease (times of 98, 92, 93, 86 and 89 seconds, respectively). On the other hand, it is also interesting that these same compounds (183B1, 205A1, 205B1, 226A1, 226B1 and 226V1) also produced reductions in the times taken to complete the experiment in control animals (B6 healthy mice) of 8s, 11s, 12s, 18s, 16s and 14s, respectively. Therefore, it may be concluded that these compounds have significant activity against neurodegeneration and in neuroregeneration.

Series [14] deals with 3T3 cells. Kind of series: Percentage of total PUFAs in membranes of 3T3 cells treated with fatty acids (gas chromatography). As to conditions: 100 μM, 48 hours, mean ± SEM of four measures, control 32.4 ± 2.1. It is filed as cell-based. The source says:
To perform these experiments, membranes were extracted and total fatty acids were obtained by hydrolysis in basic medium. Methanolic bases of these fatty acids were quantified by gas chromatography. The data shown are averages of four independent measures of PUFA's mass divided by the total fatty acids and expressed as a percentage. It is also shown is standard error of the mean.
The control corresponds to a culture without the presence of added natural or synthetic fatty acids. Cells in their natural form present PUFAs in their membranes, but the presence in the medium of the D-PUFA molecules of the invention increases these levels of PUFAs in the cell membrane.

Series [15] deals with heterotrimeric Gi1 protein. Kind of series: Binding of heterotrimeric Gi1 protein to model membranes (centrifugation, immunoblotting). To be noted: phosphatidylcholine:phosphatidylethanolamine (6:4) 2 mM phospholipid, 0.1 μM D-PUFA; control 100 ± 5; in % (unit assumed). The source says:
The net result is a regulation of cell signalling leading to the reversal of various pathological processes, as shown later. […] The Control is a sample of model membranes in the absence of fatty acids.
A general note: In western blotting, separated proteins are transferred to a membrane and probed.

Series [16] concerns HepG2 cells. Kind of series: Liver cancer (HepG2 cells). To be noted: Homo sapiens, HepG2; 72 hours. Format: cell-based. Here is the method: These charts show the antitumor efficacy of the compounds of this invention against the growth of breast cancer cells, brain (glioma), and lung cancer. […] The other experimental conditions are identical to those described in the preceding paragraph.
as §1

`CC/C=C\C/C=C\C/C=C\C/C=C\C/C=C\C/C=C\CC(O)C(=O)[O-].[Na+]` (centres unmarked) [226B1] showed a Temperature of lamellar-to-hexagonal transition in series [1] (DEPE membranes, DEPE:D-PUFA 10:1 (mol:mol)) of 45.1 °C. In addition, the IC50 in series [2] is 195 µM; in series [3], 196 µM; in series [4] it was 198 µM; in [5], 175 µM. The molecule also gave a Blood pressure in series [6] of 186 mm Hg. Further, the “Levels of apoA-I” value in series [7] was determined as 333%. The “Neuronal death (P19 cells) after treatment with NMDA” value in series [8] is given as −222%. Besides, in series [9], the “Expression of α-synuclein” value was determined as 31%. In addition, the “COX-2 protein levels (expression), percentages of inhibition compared to positive control” value in series [10] is 37%. In addition, the “Production of TNF-α in serum” value in series [11] was 83%. The “Cholesterol in serum (top number)” value in [12] is recorded as 59%. Further, the “Glucose in serum (bottom number)” value in [12] turned out to be 81%. The “Triglycerides in serum (central number)” value in [12] turned out to be 62%. Besides, in series [13], the “Reduction in the time taken to complete the experiment” value came out at 16 s.
With `CCCCCC=CCC=CCC=CCC=CCCC(O)C(=O)O` (centres unmarked) [204A1, 2-hydroxy-5,8,11,14-eicosatetraenoic acid], the “Percentage of total PUFA” value in series [14] was determined as 45.5 ± 2.9%. The molecule also gave a Transition temperature (lamellar to HII) in series [1] (DEPE (4 mM), 200 μM compound, series A, control 64.5) of 49.3 °C. Moreover, the G protein binding in series [15] is recorded as 385 ± 22. Further, the IC50 was 381 µM in series [2] (Homo sapiens, MDA-MB-231); 197 µM in series [3]; 243 µM in series [4] (Homo sapiens, A549); 62 µM in [5] (Homo sapiens, Jurkat); 192 µM in series [16]. Further, the Blood pressure in series [6] came out at 205 mm Hg. Further, in series [7], the “Levels of apoA-I” value is listed as 131%. Moreover, in series [8], the “Neuronal death (P19 cells) after treatment with NMDA” value is −70%. Further, in series [9], the “Expression of α-synuclein” value is given as 41%. The “COX-2 protein levels (expression), percentages of inhibition compared to positive control” value in series [10] is given as 17%. In series [11], the “Production of TNF-α in serum” value is 24%. Moreover, the “Cholesterol in serum (top number)” value in [12] is 72%. Further, the “Glucose in serum (bottom number)” value in series [12] was 85%. For the same molecule, in series [12], the “Triglycerides in serum (central number)” value worked out at 77%.

As usually defined, the IC50 is the concentration that inhibits the measured activity by half. A high value points to weaker potency.
